Reference: US10920236B2, “Use of micropeptides in order to stimulate mycorrhizal symbiosis” (UNIVERSITE TOULOUSE III—PAUL SABATIER, priority 2014, dated 2021)

Key:
[1] = test system: mycorrhization of Oryza sativa by Rhizophagus irregularis; test: Mycorrhization of Oryza sativa (rice); assay type: in vivo; settings: 0.1 μM, 5 weeks post inoculation; vs solvent control; FIGS. 13, 14, 15, 16 and 19
Experimental: The effects of the osmiPEP171i on mycorrhization of the rice were analyzed by treating the plants with osmiPEP171i in parallel with the mycorrhization.
The seeds are sterilized for 1 min with 70% ethanol, then for 30 min with sodium hypochlorite solution before rinsing.
Culturing of a previously germinated seed of rice is carried out in a pot containing vermiculite with cotton fibre at the bottom. 500 spores of Rhizophagus irregularis are added per pot. The spores in mixtures in a substrate are arranged in a layer on the vermiculite at approximately two thirds of the height of the pot. The remainder of the pot is then filled with vermiculite and a hole is made for placing a germinated rice seed therein. The substrate is moistened. The pots are then placed in a growing room at 25° C.
Treatments of the Plants with miPEP: • OsmiPEP171i: 0.1 μM (final) • Control: equivalent of 50% ACN solution
The treatments are carried out on Monday and Friday by mixing the solution of miPEP or control in 60 ml of nutrient solution (1/2 Hoagland with 25 μM Pi and Sequestren) and on Wednesday the solution of miPEP or control in 60 ml of water. Each plant is watered with 10 ml per pot. […]

[2] = test system: mycorrhization of Solanum lycopersicum by Rhizophagus irregularis; test: Mycorrhization of Solanum lycopersicum (tomato); assay type: in vivo; settings: 0.1 μM slmiPEP171e, watering every two days, 12 weeks post inoculation; vs solvent; FIGS. 8 and 17
Experimental: The effects of slmiPEP171e on mycorrhization of the tomato were analyzed by treating the plants with slmiPEP171e in parallel with the mycorrhization.
The seeds are sterilized for 2 minutes in sodium hypochlorite solution diluted ¼, then rinsed at least 8 times with sterile water.
The seeds are placed in a Petri dish containing water+1% agar. The dishes are placed at 4° C. overnight, then they are placed at ambient temperature for 4 days in order to germinate the seeds.
The germinated seeds are transferred to an Oil-Dry® substrate containing spores of Rhizophagus irregularis at the concentration of 400 spores/L. After two days of adaptation under mini-greenhouse the seedlings are transferred to a growing room or greenhouse. The plants are watered regularly with a solution of Long Ashton+nitrogen (Lauressergues et al., Plant J. 72(3):512-22, 2012).
The treatment is carried out by watering the plants with 12.5 ml of water+the concentrated solution of miPEP or the equivalent of solvent solution (50% acetonitrile) for the control treatment. The treatments are carried out every two days.
The roots are cleared with 1% KOH 7 minutes at 90° C., then stained 10 minutes in an ink solution (5% Sheaffer ink; 5% acetic acid) at 90° C.

[3] = test system: colonization of M. truncatula by the fungus Rhizophagus irregularis; test: Mycorrhization of M. truncatula by Rhizophagus irregularis; assay type: in vivo, Medicago truncatula
Experimental: Medicago truncatula plants were treated for 5 weeks, by watering every 2 days, with low concentrations (0.1 μM) of a synthetic peptide the sequence of which is identical to that of miPEP171b, and the percentage colonization of the plant was measured.
Sterile spores of Rhizophagus irregularis (previously called Glomus intraradices) DAOM197198 were purchased from Agronutrition (Carbonne, France).
Seeds of M. truncatula (Gaertn ‘Jemalong’ genotype A17) were sterilized on the surface and placed to germinate on agar plates in the dark for 5 days at 4° C. The plants were then grown on an Oil-Dri US-special substrate (Damolin, Denmark) for 5 to 12 weeks in a growing room and watered every 2 days with modified Long Ashton medium containing a low concentration of phosphate (Balzergue et al., J Exp Bot, 62(3):1049-60, 2011).
For the inoculation of the plants with R. irregularis, 450 spores were used per plant.
After washing in KOH 10% (weight/volume) and rinsing in sterile water, the mycorrhized roots were treated for 30 minutes with wheat germ agglutinin fluorescein conjugate (Invitrogen) which fixes the fungal chitin, then washed 3 times in a PBS buffer. The roots were then observed with an inverted optical microscope or a confocal microscope (Leica, France).
Alternatively, the roots were labelled with black Schaeffer ink according to the protocol described in Vierheilig et al., Appl Environ Microbiol, 64:5004-5007, 1998.
The percentage mycorrhization was measured using grids according to the protocol described in Giovannetti and Mosse, New Phytol, 84:489-500, 1980.
The accurate phenotyping of the mycorrhization was also carried out according to the method of Trouvelot et al., Physiological and Genetical Aspects of Mycorrhizae, pp 217-221, 1986. The frequency of mycorrhization (F) in the root system and the abundance of the arbuscules (A) (as a percentage) were calculated in colonized root sections using the software Mycocalc.
The size of the arbuscules was measured using the software ImageJ. […]

[4] = test system: lateral roots of M. truncatula; test: Number of lateral roots in M. truncatula; assay type: in vivo, Medicago truncatula
Experimental: (§1) The surface of the seeds of M. truncatula was sterilized and they were placed to germinate on agar plates for 5 days at 4° C. in the dark. The young shoots were then grown on 12 cm square plates filled with Fahraeus medium without nitrogen and containing 7.5 μM phosphate (Lauresergues et al., Plant J., 72(3):512-22, 2012). The lateral roots were counted every day. In pots, the plants were watered every two days with modified Long Ashton medium containing little phosphorus (Balzergue et al., 2011 Journal of experimental botany, 62:1049-1060).
(§2) The peptides were synthesized by Eurogentec or Smartox-Biotech. The miPEP171b was placed in suspension in a water 40%/acetonitrile 50%/acetic acid 10% (v/v/v) solution.
The mean values of the relative expression of the genes or of the production of lateral roots were analyzed by using the Student test or the Kruskal-Wallis test. The error bars represent the standard error of the mean (SEM). The asterisks indicate a significant difference (p<0.05).
The DNA fragments of interest were amplified with Pfu polymerase (Promega). […]
(§3) The composite plants having roots transformed with Agrobacterium Rhizogenes were obtained by the method described in Boisson-Dernier et al. (Mol Plant-Microbe Interact, 18:1269-1276, 2005). The transformed roots were verified and selected by observations of DsRED with a binocular fluorescence magnifier. […]

[5] = test system: HAM2 (Accession No. MtGI9-TC120850); test: Expression of the HAM2 gene in M. truncatula roots (qRT-PCR); assay type: in vivo, Medicago truncatula
Experimental: as §1, §2
(§4) The total RNA of the roots of M. truncatula was extracted by using the RNeasy Plant Mini Kit extraction kit (Qiagen). […]
(§5) The mean values of the relative expression of the genes or of the production of lateral roots were analyzed by using the Student test or the Kruskal-Wallis test. […]
as §3

miR171b = test: Accumulation of miR171b in M. truncatula roots (qRT-PCR); assay type: in vivo, Medicago truncatula
Experimental: as §1, §2
The RNA was extracted by using the reagent Tri-Reagent (MRC) according to the manufacturer's instructions, with the exception of precipitation of the RNA which was carried out with 3 volumes of ethanol. […]
as §5, §3

[6] = test system: HAM1 (Accession No. MtGI9-TC114268); test: Expression of the HAM1 gene in M. truncatula roots (qRT-PCR); assay type: in vivo, Medicago truncatula
Experimental: as §1, §2, §4, §5, §3

[7] = test system: mycorrhization of Lotus japonicus by Rhizophagus irregularis; test: Mycorrhization of Lotus japonicus (birdsfoot trefoil); assay type: in vivo; settings: 0.1 μM, 5 weeks post inoculation; vs control; FIGS. 9, 10, 11, 12 and 18
Experimental: The effects of the LjmiPEP171b on mycorrhization of the birdsfoot trefoil were analyzed by treating the plants with LjmiPEP171b in parallel with the mycorrhization.
The seeds are sterilized in sodium hypochlorite solution for 20 min then rinsed several times in water.
Culturing of the birdsfoot trefoil plants is carried out in a pot containing vermiculite with cotton fibre at the bottom. 5,000 spores of Rhizophagus irregularis are added per pot. The spores in mixtures in a substrate are arranged in a layer on the vermiculite to approximately two thirds of the height of the pot. The remainder of the pot is then filled with vermiculite and 10 seeds of pre-germinated birdsfoot trefoil are placed in the moist substrate. 3 pots are prepared for each treatment. The pots are then places in a growing room at 25° C.
Treatments of the Plants with miPEP: • LjmiPEP171e: 0.1 μM (final) • Control: water.
The treatments are carried out on Monday and Friday by mixing the solution of miPEP or control with the nutrient solution (suitable B&D medium) and on Wednesday the solution of miPEP or control in water. Each pot is watered with 10 ml except on Friday 30 ml (without changing the quantity of miPEP), in order to last over the weekend. […]

[8] = plant in which miPEP171b is overexpressed vs control plant, FIG. 2A
[9] = synthetic peptide applied to roots, medium containing miPEP171b at 0.01 μM, 0.1 μM or 1 μM, vs control plant, FIG. 3A

MIARYIEREMTSKLGRGRKRAARLVAVFLLG (listed as Oryza sativa) [osmiPEP171i]
mycorrhization of rice [1]: promotes

MKLGNIEGTYFIICLGRYI (listed as Solanum lycopersicum) [slmiPEP171e]
mycorrhization of the tomato [2]: promotes

MLLHRLSKFCKIERDIVYIS (listed as Medicago truncatula) [miPEP171b]
mycorrhization rate ([3]; 0.1 μM miPEP171b, 5 weeks post inoculation, vs control plants, FIG. 7): greater
mycorrhization (percentage colonization of the plant) ([3]; 0.1 μM synthetic peptide, watering every 2 days for 5 weeks, vs solvent control, FIG. 5): significantly increased
size (surface area) of the arbuscules ([3]; roots treated with 0.1 μM miPEP171b vs control roots, FIG. 6): larger size
average number of lateral roots ([4]; medium containing miPEP171b at 0.1 μM for 5 days and 1 time per day, vs control plant, FIG. 3B): reduction
average number of lateral roots ([4]; plant in which miPEP171b is overexpressed vs control plant, FIG. 2B): reduction
expression of the HAM2 gene (relative expression) [5, 8]: reduction
expression of the HAM2 gene (relative expression) [5, 9]: reduction
accumulation of miR171b (relative expression) (miR171b; [8]): increase
accumulation of miR171b (relative expression) (miR171b; [9]): increase
expression of the HAM1 gene (relative expression) [6, 8]: reduction
expression of the HAM1 gene (relative expression) [6, 9]: reduction

MYHRSKAKLCQTDGDDGGGSDM (listed as Lotus japonicus) [LjmiPEP171b]
mycorrhization of birdsfoot trefoil [7]: promotes
